ChEMBL document CHEMBL1156829 (Proc Natl Acad Sci U S A, 2008)

Experiments:
[1] = tested on: Plasmodium falciparum; assay: NOVARTIS: Inhibition of Plasmodium falciparum W2 (drug-resistant) proliferation in erythrocyte-based infection assay; format: functional, organism-based; conditions: Plasmodium falciparum, W2; read-out: EC50
[2] = tested on: Plasmodium falciparum; assay: NOVARTIS: Inhibition of Plasmodium falciparum 3D7 (drug-susceptible) proliferation in erythrocyte-based infection assay; format: functional, organism-based; conditions: Plasmodium falciparum, 3D7
[3] = NOVARTIS: Cytotoxicity against human hepatocellular carcinoma cell line (Huh7); format: toxicity, cell-based, Huh-7; conditions: Huh7 cells (hepatocellular carcinoma cell line)

| Structure (SMILES) | EC50 [1] | EC50 [2] | CC50 [3] |
| --- | --- | --- | --- |
| CCNC(=S)NC1CC2CCCC(C1)N2CCc1ccccc1 (configuration not stated) | 1.39 µM | 1.59 µM | > 100 µM |
| O=S(=O)(Oc1ccc2ccccc2c1Cc1c(OS(=O)(=O)c2ccccc2)ccc2ccccc12)c1ccccc1 | 1.84 µM | > 12.5 µM | > 100 µM |
| Cc1ccccc1CN1CCN(C/C=C/c2ccccc2)CCC1=O | 0.0267 µM | > 1.25 µM | > 10 µM |
| Cc1cc(N2CCN(c3ccccn3)CC2)n2c(nc3ccccc32)c1C#N | 2.76 µM | 1.41 µM | > 100 µM |
| COc1ccccc1-n1nnnc1SCC(=O)Nc1cc([N+](=O)[O-])ccc1C | 0.349 µM | 0.651 µM | > 100 µM |
| COc1ccc(Cn2nnnc2CN2CCc3ccccc3C2)cc1 | > 1.25 µM | > 0.853 µM | > 10 µM |
| CC(C)n1nnnc1CN1CCN(c2ccccc2F)CC1 | > 1.19 µM | > 1.48 µM | > 10 µM |
| COc1ccc(C2CC(=O)C3=C(C2)NC(C)=C(C(=O)OC2CCCC2)C3c2ccccc2Cl)cc1OC (configuration not stated) | 0.00738 µM | 0.0558 µM | > 100 µM |
| O=C(CCn1c(=S)oc2ccccc21)N1CCN(c2ccccc2)CC1 | 0.0267 µM | > 1.25 µM | > 10 µM |
| O=C(C1=C(O)C(=O)N(CCCn2ccnc2)C1c1ccccc1[N+](=O)[O-])c1ccccc1 (configuration not stated) | 2.83 µM | > 12.5 µM | > 100 µM |
| O=C(/C=C/c1cccnc1)C12CC3CC(CC(C3)C1)C2 | 0.0528 µM | 0.102 µM | > 10 µM |
| CCOC(=O)c1cccc(NC(=O)CCn2c(-c3ccc(F)cc3)cc(C(=O)OCC)c2C)c1 | 0.0897 µM | 0.059 µM | > 100 µM |
| CC(C)N1CCCc2cc(CN3CCC(n4cc(C(=O)NCCCO)nn4)CC3)ccc21 | 0.134 µM | > 1.25 µM | > 10 µM |
| CCN(CC)c1scc(-c2ccc(Cl)cc2)[s+]1 | 0.725 µM | 0.303 µM | 25.4 µM |
| CCOC(=O)c1cn(CC)c2cc(N3CCCCC3)c(F)cc2c1=O | 0.336 µM | 0.166 µM | > 100 µM |
| O=C(Nc1ccc(C2=NCCCN2)cc1)c1ccc(C(=O)Nc2ccc(C3=NCCCN3)cc2)cc1 | 0.0932 µM | 0.12 µM | > 100 µM |
| O=C(Oc1ccccc1-c1nc2ccccn2c1NC1CCCCC1)c1ccc([N+](=O)[O-])cc1Cl | 0.352 µM | > 1.25 µM | > 10 µM |
| Cc1ccc(-c2nnc(N3CCOCC3)c3ccccc23)cc1S(=O)(=O)N1CCN(C)CC1 | > 1.22 µM | > 1.25 µM | > 10 µM |
| COc1cc(C2c3[nH]c4ccccc4c3C[C@H]3C(=O)N(CCc4ccccc4)CC(=O)N23)cc(OC)c1OC (some centres not stated) | 0.374 µM | 0.611 µM | > 100 µM |
| CC(C)CC(=O)NCCCCNc1ccnc2cc(Cl)ccc12 | 0.43 µM | 0.62 µM | > 10 µM |
| c1ccc2c(c1)ccc1cc3cccc[n+]3cc12 | 0.795 µM | 1.38 µM | 37 µM |
| CCc1cccc(NS(=O)(=O)c2ccc3[nH]c(=O)c(=O)[nH]c3c2)c1 | > 1.45 µM | > 1.04 µM | > 10 µM |
| N#Cc1cc2nc3c(nc2cc1C#N)-c1ccccc1C3=O | 2.56 µM | 6.97 µM | 33.2 µM |

| Structure (SMILES) | EC50 [1] | EC50 [2] | CC50 [3] |
| --- | --- | --- | --- |
| CC(C)CNCc1cc(-c2ccc(F)cc2)ccc1O | 0.01 µM | 0.104 µM | 58.6 µM |
| COc1cc(C(=O)Nc2cnc3ccccc3c2)ccc1-n1cnnn1 | 4.75 µM | 3.98 µM | > 100 µM |
| Cc1ccc(S(=O)(=O)N=C2C=C(Sc3nc4ccccc4[nH]3)C(=O)c3ccccc32)cc1 | 0.834 µM | 0.632 µM | 16.8 µM |
| NC(=NCc1ccccc1)NC(=O)c1nc(Cl)c(N)nc1N | > 1.25 µM | 1.16 µM | > 6.25 µM |
| N#CC1=C(N)Oc2c(c(=O)oc3ccccc23)C1c1ccoc1 (configuration not stated) | > 1.66 µM | > 1.16 µM | > 10 µM |
| Cc1cccc(Nc2ccccc2C(=O)OCC(=O)N2CC(=O)Nc3ccccc32)c1C | 3.82 µM | 4.71 µM | 55.1 µM |
| Cc1ccc(NC(=O)N(CCCN(C)C)Cc2cc3cc4c(cc3[nH]c2=O)OCO4)cc1 | 0.236 µM | 1.29 µM | > 100 µM |
| O=C1/C(=N\c2cccc(O)c2)C(N2CCCCC2)=C(O)c2ccccc21 | 0.227 µM | 0.212 µM | > 100 µM |
| c1ccc(CSc2scnc2[P+](c2ccccc2)(c2ccccc2)c2ccccc2)cc1 | 0.563 µM | 0.335 µM | 3.19 µM |
| CCOC(=O)c1ccc2nc(C)cc(Nc3ccc(N4CCCCC4)cc3)c2c1 | 0.634 µM | 0.292 µM | 21.2 µM |
| CN(C)CCNC(=O)c1c[nH]c2ccc(S(=O)(=O)N3CCc4ccccc43)cc2c1=O | > 1.25 µM | 0.418 µM | > 10 µM |
| O=C(/C=C\c1ccccc1)Nc1ccc2[nH]c(-c3ccc(NC(=O)/C=C/c4ccccc4)cc3)nc2c1 | 0.425 µM | 0.254 µM | > 10 µM |
| Cc1ccc2ccc(C(Nc3ccccn3)c3ccc(Br)cc3)c(O)c2n1 (configuration not stated) | 0.8 µM | 1.22 µM | > 100 µM |
| COCCNC(=S)N1CCN(S(=O)(=O)c2ccc([N+](=O)[O-])cc2)CC1 | 0.101 µM | 0.176 µM | > 100 µM |
| CCN(CC)Cc1ccc2c(NC(=O)c3ccc(C)s3)c(C(=O)OC)sc2n1 | 1.19 µM | 1.23 µM | 1.24 µM |
| Brc1cccc(CNC2CCN(CCc3ccccc3)CC2)c1 | 0.515 µM | 0.31 µM | 22.9 µM |
| Cc1ccccc1Cn1cc(NC(=O)c2cc(-c3cccs3)on2)cn1 | 1.42 µM | > 1.25 µM | > 10 µM |
| c1ccc(N=c2n(-c3ccccc3)c(=Nc3ccccc3)n(-c3ccccc3)c(=Nc3ccccc3)n2-c2ccccc2)cc1 | > 0.468 µM | > 1.35 µM | > 10 µM |
| O=C(c1ccc2nc(N3CCCCC3)sc2c1)N1CCN(Cc2ccc3c(c2)OCO3)CC1 | 0.298 µM | 0.407 µM | > 100 µM |
| Cc1nccn1CC(C)C(=O)N1CCCC(n2nc(-c3cccs3)ccc2=O)C1 (configuration not stated) | > 1.25 µM | > 0.62 µM | > 10 µM |
| c1ccc(Nc2nc(NCC3CCCO3)c3ccccc3n2)cc1 (configuration not stated) | 0.169 µM | 0.114 µM | > 10 µM |
| C=CC1CN2CCC1CC2[C@@H](OC(=O)c1ccc(C(C)(C)C)cc1)c1ccnc2ccc(OC)cc12 (some centres not stated) | 0.103 µM | 0.026 µM | 72.5 µM |
| CN1CCN(c2ccc(Nc3ccnc4ccccc34)cc2)CC1 | 0.237 µM | 0.22 µM | > 10 µM |

| Structure (SMILES) | EC50 [1] | EC50 [2] | CC50 [3] |
| --- | --- | --- | --- |
| CC(NS(=O)(=O)c1ccccc1)C(=O)NC1CCCC1 (configuration not stated) | 4.62 µM | > 4.32 µM | > 100 µM |
| O=C1C=C(Nc2cccc(C(F)(F)F)c2)C(=O)c2ccccc21 | 0.519 µM | 0.549 µM | > 100 µM |
| Cc1nc(-c2nc3c(s2)CN(C(=O)CCc2cccnc2)CC3)cs1 | 0.335 µM | 1.09 µM | > 10 µM |
| CCN(CC)CCCC(C)Nc1cc(C=Cc2ccc([N+](=O)[O-])cc2)nc2cc(OC)ccc12 (configuration not stated) | 0.0323 µM | 0.0316 µM | 20.2 µM |
| CC(C)(C)NC(=S)NN=CC=NNC(=S)NC(C)(C)C | 0.0569 µM | 0.21 µM | > 100 µM |
| COC(OC)C(C)=NNC(N)=S | 0.00362 µM | 0.00892 µM | > 100 µM |
| COc1ccc(OCCNC(=O)c2ccccc2Cl)cc1 | > 0.38 µM | > 1.25 µM | > 10 µM |
| CCc1ccc2ncc(C(=O)OCCOC)c(O)c2c1 | 1.62 µM | 0.777 µM | > 100 µM |
| COC1=C(Nc2cccc(C(F)(F)F)c2)C(=O)c2ccccc2C1=O | 0.114 µM | 0.263 µM | > 100 µM |
| NCCNc1cc(-c2ccccc2)nc2ccccc12 | 0.375 µM | 0.318 µM | 23 µM |
| CCOC(=O)c1cccc(NC(=O)CC2C(=O)N(c3ccccc3)C(=O)N2C2CCCC2)c1 (configuration not stated) | 0.0884 µM | 0.276 µM | > 100 µM |
| CCCCCCCCC(=O)Oc1ccccc1-c1nc2cc(C)ccn2c1NC(C)(C)CC(C)(C)C | 0.074 µM | 0.713 µM | > 10 µM |
| c1ccc2cc3c(N4CCN(CCN5CCN(c6ccnc7cc8ccccc8cc67)CC5)CC4)ccnc3cc2c1 | 0.228 µM | 0.176 µM | > 100 µM |
| COCCOC(=O)C1=C(C)NC2=C(C(=O)CC(c3ccc(OC)cc3)C2)C1c1ccc(Cl)cc1 (configuration not stated) | 0.0332 µM | 0.167 µM | > 100 µM |
| COc1ccc(C2C(C(=O)OC3CCCC3)=C(C)NC3=C2C(=O)CC(C)(C)C3)cc1Br (configuration not stated) | 1.55 µM | 7 µM | > 100 µM |
| O=C(NCCCN1CCCC1=O)C(=O)NCC(c1ccco1)N1CCOCC1 (configuration not stated) | 1.35 µM | > 1.25 µM | > 10 µM |
| CCCCCN(C(=O)COc1ccc(Cl)cc1)C(CC)c1nc2ccccc2c(=O)n1-c1cccc(Cl)c1 (configuration not stated) | > 1.38 µM | 1.42 µM | > 10 µM |
| O=C(NCc1ccco1)c1ccc(OC2CCN(Cc3ccncc3)CC2)c(Cl)c1 | 0.427 µM | 0.683 µM | > 100 µM |
| CCOc1ccc2[nH]c(=O)c(CN(CCCN3CCOCC3)C(=S)NCCCN(CC)CC)cc2c1 | 0.679 µM | 2.61 µM | > 100 µM |
| CCCCCCN(C(=O)COCc1ccccc1)C(CC)c1nc2ccccc2c(=O)n1-c1cccc(Cl)c1 (configuration not stated) | 0.0758 µM | 0.0422 µM | > 7.77 µM |
| OCCCCCCCCCCC[n+]1ccccc1 | 0.365 µM | 0.133 µM | > 100 µM |
| O=C(Nc1ccccc1[N+](=O)[O-])C1CC1(c1ccccc1)c1ccccc1 (configuration not stated) | 0.647 µM | > 12.5 µM | > 100 µM |
| C=CCc1c(C)nc2ccc(Br)cc2c1O | 1.79 µM | 1.6 µM | > 100 µM |
